Columns and labels:
[1] = biological target: T1, human Farnesoid X receptor ligand-binding domain/Gal4 DNA binding domain chimera (Homo sapiens, UniProt Q96RI1); test: Cell-based assay of FXR activation (FXR-UAS-bla HEK 293T beta-lactamase reporter); settings: for Emax: HEK-293T, read-out: Cellular % Efficacy
T1 construct: host or cells: FXR-UAS-bla HEK 293T (CellSensor UAS-bla HEK 293T)
T1 sequence (Q96RI1 262-486 limits assumed): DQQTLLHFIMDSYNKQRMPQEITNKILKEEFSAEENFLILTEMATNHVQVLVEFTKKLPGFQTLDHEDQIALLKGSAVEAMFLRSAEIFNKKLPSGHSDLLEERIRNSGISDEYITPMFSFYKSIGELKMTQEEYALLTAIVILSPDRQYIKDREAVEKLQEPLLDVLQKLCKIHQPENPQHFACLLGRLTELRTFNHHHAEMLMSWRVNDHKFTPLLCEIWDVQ
Method: FXR activation was measured using a cell line and procedure obtained from Life Technologies (Cat #K1691). […] Activation of FXR by bound ligands results in transcriptional activation of the beta-lactamase reporter gene, which is detected via assay of beta-lactamase activity.
Cells are harvested and diluted into assay medium containing phenol red-free DMEM supplemented with 2% Charcoal-stripped FBS, pyruvate, non-essential amino acids. Cells are then transferred to a 384 well assay plate. Test compounds are dissolved in DMSO and a 3-fold serial dilution series is generated, then further diluted into assay medium. Compounds in assay medium are added to cells in the 384 well plate and allowed to incubate 16 h at 37 C in the presence of 5% CO2.
A FRET-based […] (CCF4) is loaded into cells as its acetomethoxy ester. Intracellular esterases liberate free CCF4, a cephalosporin core linking 7-hydroxycoumarin to fluorescein. In the presence of beta-lactamase activity produced in the presence of FXR agonists, cleavage of CCF4 spatially separates the two dyes and disrupts FRET, so that exciting the coumarin at 409 nm now produces a blue fluorescence signal at 447 nm. The change in FRET signal is plotted against the test compound concentration and fit to a 3-parameter logistical equation.

[2] = biological target: T2, ligand binding domain of human FXR (Homo sapiens, UniProt Q96RI1); test: biochemical; settings: for Emax: extent of activation relative to GW4064, read-out: Ligand Binding % Efficacy; for EC50: −log EC50, concentration required to produce 50% activation, FRET 520 nm/495 nm, 1 hour at room temperature, read-out: Ligand Binding pEC50 (converted)
T2 construct: purchased Thermofisher (LanthaScreen) PV4833
T2 sequence (Q96RI1 262-486 limits assumed): T1 sequence (Q96RI1 262-486 limits assumed)

| SMILES | EC50 [1] [nM] | Emax [1] [%] | Emax [2] [%] | EC50 [2] [nM] |
| --- | --- | --- | --- | --- |
| O=C(NS(=O)(=O)C1CCOCC1)c1ccc(N2C[C@@H]3C[C@H]2C[C@H]3OCc2c(C3CC3)nnn2-c2c(Cl)cccc2Cl)cc1 [Compound I-56, 4-[(1S,4S,5R)-5-{[4-cyclopropyl-1-(2,6-dichlorophenyl)-1H-1,2,3-triazol-5-yl]methoxy}-2-azabicyclo[2.2.1]heptan-2-yl]-N-(oxane-4-sulfonyl)benzamide] | 10 | 104 | 180 | 2 |
| O=C(O)c1cc(O[C@H]2CCOC2)c2nc(N3C[C@@H]4C[C@H]3C[C@H]4OCc3c(C4CC4)nnn3-c3c(Cl)cccc3Cl)sc2c1 [Compound I-61, 2-[(1S,4S,5R)-5-{[4-cyclopropyl-1-(2,6-dichlorophenyl)-1H-1,2,3-triazol-5-yl]methoxy}-2-azabicyclo[2.2.1]heptan-2-yl]-4-[(3S)-oxolan-3-yloxy]-1,3-benzothiazole-6-carboxylic acid] | 25.1 | 107 | 158 | 3.98 |
| O=C(O)c1cc(O[C@@H]2CCOC2)c2nc(N3C[C@@H]4C[C@H]3C[C@H]4OCc3c(C4CC4)nnn3-c3c(Cl)cccc3Cl)sc2c1 [Compound I-62, 2-[(1S,4S,5R)-5-{[4-cyclopropyl-1-(2,6-dichlorophenyl)-1H-1,2,3-triazol-5-yl]methoxy}-2-azabicyclo[2.2.1]heptan-2-yl]-4-[(3R)-oxolan-3-yloxy]-1,3-benzothiazole-6-carboxylic acid] | 25.1 | 106 | 158 | 3.98 |
| O=C(O)c1cc(OC(F)(F)F)c2nc(N3C[C@@H]4C[C@H]3C[C@H]4OCc3c(-c4c(Cl)cccc4Cl)nnn3C3CC3)sc2c1 [Compound I-63, 2-[(1S,4S,5R)-5-{[1-cyclopropyl-4-(2,6-dichlorophenyl)-1H-1,2,3-triazol-5-yl]methoxy}-2-azabicyclo[2.2.1]heptan-2-yl]-4-(trifluoromethoxy)-1,3-benzothiazole-6-carboxylic acid] | 12.6 | 103 | 180 | 12.6 |
| O=C(O)c1cc(OC2CC2)c2nc(N3C[C@@H]4C[C@H]3C[C@H]4OCc3c(-c4c(Cl)cccc4Cl)nnn3C3CC3)sc2c1 [Compound I-64, 4-cyclopropoxy-2-((1S,4S,5R)-5-((1-cyclopropyl-4-(2,6-dichlorophenyl)-1H-1,2,3-triazol-5-yl)methoxy)-2-azabicyclo[2.2.1]heptan-2-yl)benzo[d]thiazole-6-carboxylic acid] | 10 | 113 | 172 | 5.01 |
| O=C(O)c1cc(C2CCOCC2)c2nc(N3C[C@@H]4C[C@H]3C[C@H]4OCc3c(-c4c(Cl)cccc4Cl)nnn3C3CC3)sc2c1 [Compound I-67, 2-((1S,4S,5R)-5-((1-cyclopropyl-4-(2,6-dichlorophenyl)-1H-1,2,3-triazol-5-yl)methoxy)-2-azabicyclo[2.2.1]heptan-2-yl)-4-(tetrahydro-2H-pyran-4-yl)benzo[d]thiazole-6-carboxylic acid] | 10 | 111 | 148 | 20 |
| O=C(O)c1cc(C2CCC2)c2nc(N3C[C@@H]4C[C@H]3C[C@H]4OCc3c(-c4c(Cl)cccc4Cl)nnn3C3CC3)sc2c1 [Compound I-68, 4-cyclobutyl-2-[(1S,4S,5R)-5-{[1-cyclopropyl-4-(2,6-dichlorophenyl)-1H-1,2,3-triazol-5-yl]methoxy}-2-azabicyclo[2.2.1]heptan-2-yl]-1,3-benzothiazole-6-carboxylic acid] | 1.58 | 106 | 178 | 3.98 |
| O=C(O)c1cc(C2CCCC2)c2nc(N3C[C@@H]4C[C@H]3C[C@H]4OCc3c(-c4c(Cl)cccc4Cl)nnn3C3CC3)sc2c1 [Compound I-69, 4-cyclopentyl-2-[(1S,4S,5R)-5-{[1-cyclopropyl-4-(2,6-dichlorophenyl)-1H-1,2,3-triazol-5-yl]methoxy}-2-azabicyclo[2.2.1]heptan-2-yl]-1,3-benzothiazole-6-carboxylic acid] | 2.51 | 111 | 168 | 6.31 |
| O=C(O)c1ccc(N2C[C@@H]3C[C@H]2C[C@H]3OCc2c(-c3c(Cl)cccc3Cl)nnn2C2CC2)cc1 [Compound I-70, 4-[(1S,4S,5R)-5-{[1-cyclopropyl-4-(2,6-dichlorophenyl)-1H-1,2,3-triazol-5-yl]methoxy}-2-azabicyclo[2.2.1]heptan-2-yl]benzoic acid] | 39.8 | 106 | 155 | 63.1 |

From patent US11753410B2, “Hormone receptor modulators for treating metabolic mutagenic and fibrotic conditions and disorders” (priority 2017, dated 2023)
